Measurements reported in patent US20120252045A1, “METHOD OF ASSESSING ISLET FUNCTION” (priority 2009, published 2012).
Where two headings read alike, the source gives them in different places.

What was measured:
adult porcine islets = conditions: vs non-NaAz treated cells
Protocol: (§1) Porcine islet OCRs were assessed in triplicate aliquots of 1000 IEQ. Controls comprising media alone and heat-killed islets (1000 IEQ ×3 incubated for 1 hour at 60° C.) were assayed in parallel. OCRs were measured using a fiber optic sensor oxygen monitoring system (Instech Laboratories Plymouth Meeting, Pa.), which quantifies the decrease in oxygen partial pressure (pO2) over time, as described by Papas et al., “A Stirred Microchamber for Oxygen Consumption Rate Measurements with Pancreatic Islet Cells,” Biotechnol Bioeng 2007; 98: 1071-1082. OCRs were standardized to the amount of DNA in each chamber (nmol/min-mgDNA), which was determined using a Quant-iT PicoGreen dsDNA kit (Molecular Probes, Eugene, Oreg.).
The experiment was repeated 3 times.

β-TC6 cells = conditions: n=4
Protocol: as §1
Reductions in OCR were assessed by comparing the effect of the NaAz on the OCR measurements to the OCR capability of non-treated cells. BTC6 cells and Hela cells were incubated on 150 mm culture dishes for 2 days in a 37° C. incubator with a 5% CO2 environment. The cells were then removed using 5 mM EDTA/PBS and washed once with PBS. The resulting cell pellet was resuspended in 5 mL of DMEM (Sigma) supplemented with 5% FCS (Sigma) and Penicillin/Streptomycin (Invitrogen). Cells were then incubated with various concentrations (0.01, 0.1, 1.0 and 10 mg/ml) of sodium azide (Sigma) for 10 minutes prior to measuring their oxygen consumption rates.

## [N-]=[N+]=[N-] [NaAz, sodium azide]
Adult porcine islets; islets incubated with 0.1 mg/ml NaAz for 10 minutes
  reduction in OCR: 37.6%
Adult porcine islets; islets incubated with 1 mg/ml NaAz for 10 minutes
  reduction in OCR: 59.7%
Adult porcine islets; islets incubated with 10 mg/ml NaAz for 10 minutes
  reduction in OCR: 84.2%
β-TC6 cells; β-TC6 cells incubated with 0.1 mg/ml NaAz for 10 minutes
  reduction in OCR: 29.8±4.5%
β-TC6 cells; β-TC6 cells incubated with 1 mg/ml NaAz for 10 minutes
  reduction in OCR: 71.2±6.6%
β-TC6 cells; β-TC6 cells incubated with 10 mg/ml NaAz for 10 minutes
  reduction in OCR: 85.9±2.3%
